# Reference: patent US20180326021A1, “Methods and Compositions for the Treatment of Cytoplasmic Glycogen Storage Disorders” (Duke University, priority 2015, published 2018)
# Where “and” joins values, the source holds several entries; their conditions need not be identical. Equal values may be shown once. Entries after “also recorded” stand apart in the source; their conditions may differ.
# Key:
# [1] = test system: primary muscle cells from GSD IIIa patients; assay: rhGAA treatment of cultured primary muscle cells from GSD III patients; format: cell-based, human; conditions: normal and GSD III patient primary muscle cells, rhGAA added to culture
# Description: FIG. 2 illustrates an analysis of the skeletal muscle biopsies from two GSD Ma patients, a person (Pt. 1) and a person (Pt. 2). […] (B) Under EM, occasional lysosomal glycogen (arrow) was also seen in the myocytes (scale bar=1 μm). […] (E) GAA activity in normal and patient cells 48 h after adding recombinant human acid alpha-glucosidase (rhGAA, Myozyme, alglucosidase alfa) treatment. […] Mean±standard deviation is shown in C—F (n=4). The significance of differences between two different groups was assessed using the two-tailed, equal variance student T-test ([…]).
# [2] = test system: primary GSD IV mouse muscle cells; assay: rhGAA treatment of cultured primary myoblasts from GSD IV mice; format: cell-based
# Description: Primary myoblast cells were isolated from 7-day-old GSD IV mouse skeletal muscle. Early passage cells were seeded in 10-cm culture dishes with EMEM medium containing 10% FBS. When cells reached 90% confluence, rhGAA was added to the culture medium (final activity =1000 nmol/hr/ml). The cells were harvested 24 hours later to analyze glycogen content and GAA activity.
# Reduction of glycogen deposition in GSD IV mouse myoblasts by rhGAA treatment was also confirmed by immunofluorescence staining using a mouse anti-glycogen monoclonal antibody ESG1A9mAb.
# GSD IV mice = assay: Short-term rhGAA enzyme replacement therapy in GSD IV mice; format: in vivo, mouse
# Description: (§1) Methods: A short-term study was conducted to determine the minimum effective dose (MED) of rhGAA treatment with 3 dosages: 20 mg/kg (human equivalent dose, n=6), 40 mg/kg (n=9), and 100 mg/kg (n=8). Male GSD IV mice received weekly intravenous injections of rhGAA were conducted for 4 week starting at age of 10 weeks. A group of age-matched untreated mice (n=8) were used as controls. To prevent anaphylactic reactions, the animals were administered 25 mg/kg diphenhydramine (i.p.) 10-15 min prior to enzyme administration. All mice were sacrificed 48 hours after the last injection following overnight fasting. Fresh tissues were immediately frozen and stored at −80° C. until use for GAA activity and glycogen content analyses. Protein concentration was measured using BCA method.
# GSD III mice = assay: Short-term rhGAA enzyme replacement therapy in GSD III mice; format: in vivo, mouse
# Description: as §1, with “GSD III mice were used to test 3 dosages” for “A short-term study was conducted”, “treatment:” for “treatment with 3 dosages:”, “(n=6),” for “(human equivalent dose, n=6),”, “(n=5),” for “(n=9),”, “(n=7). Weekly” for “(n=8). Male GSD IV mice received weekly”, “10 -15” for “10-15”
# [3] = test system: patient with PRKAG2 pathogenic gene mutation; assay: Alglucosidase alfa ERT in a patient with PRKAG2 mutation (case report); format: in vivo, human; conditions: for overall clinical response (neurological, occupational and physical therapy reports): after reinitiation of ERT
# Description: A patient was born by caesarian section at 38 weeks gestation as a result of the nuchal cord being wrapped around their neck. The patient was noted to have hypotonia and generalized muscle weakness. They were areflexic and had feeding difficulties. The patient began developing severe lower respiratory infections which led to frequent admissions to the hospital. […] Following numerous recurrent pneumonias, and the history of muscle weakness, the patient's physicians raised Pompe disease as a potential diagnosis. […] Given the early findings of hypotonia and the low GAA enzyme activity, a diagnosis of non-classic infantile Pompe disease was made. The patient was initiated on ERT with alglucosdase alfa at a dose of 20 mg/kg every 2 weeks.
# Baseline assessments were done which included tests for AST (44 IU/L; normal range: <45 IU/L), ALT (20 IU/L; normal range: 9-80 IU/L), along with PT measures looking at muscle strength and function measures. […] Upon examination, the patient has developed more defined calf muscles, along with an improvement of […] strength and power. […] has grown physically stronger and has not had episodes in which […] lacks energy for consecutive days, becomes completely floppy, and is unable to hold their head up properly following a seizure.
# At baseline, according to the MABC assessment, the patient achieved a Total Test Score of 68 ranking them in the 25th percentile. Five months after reinitiation of ERT, the patient achieved a Total Test Score of 73 on […] MABC assessment, ranking them in the 37th percentile. A minimal detectable change (MDC) for the MABC has been reported as 1.21 points, representing a true change in motor function. The results in this child show an increase of 5 points over 5 months, which is greater than the minimal important difference (MID) of the MABC, which has been reported as a change of 2.5 points shown over 6 months.
# [4] = rhGAA 1000 nmol/hr/ml in medium, cells harvested 24 hours later
# [5] = 20 mg/kg weekly i.v. for 4 weeks
# [6] = 40 mg and 100 mg rhGAA treatment
# [7] = 40 mg/kg weekly i.v. for 4 weeks
# [8] = weekly rhGAA for 4 weeks at 20, 40 or 100 mg/kg, data not shown
# [9] = over 5 months on ERT vs pre-ERT baseline
# [10] = reassessment, 5 months post ERT
substance,measurement,setting,value
recombinant human acid alpha-glucosidase [rhGAA],glycogen concentration,[1],significantly reduced
same,glycogen deposition (immunofluorescence staining),[2]; 4 hours after rhGAA treatment,reduction of glycogen was obvious
same,glycogen deposition (immunofluorescence staining),[2]; 24 hours after rhGAA treatment,became more evident
same,glycogen deposition (anti-glycogen antibody ESG1A9mAb staining),[2]; immunofluorescence staining,reduced glycogen deposition
same,GAA activity increase,[2]; [4],50%
same,glycogen content decrease,[2]; [4],24%
same,glycogen content,[2]; rhGAA treated vs untreated cells,significantly (p<0.01) reduced
same,glycogen in any tissue,GSD IV mice; 20 mg/kg,failed to reduce glycogen in any tissue
same,reduction of glycogen accumulation in liver,GSD IV mice; 20 mg/kg,not significant
same,"GAA activity in heart, increase",GSD IV mice; [5],1.7 fold
same,"GAA activity in liver, increase over untreated controls",GSD IV mice; [5],29 fold
same,liver glycogen decrease,GSD IV mice; [6],21-25%
same,"GAA activity in heart, increase",GSD IV mice; [7],2.8 fold
same,"glycogen content in liver, change",GSD IV mice; [7],−21%
same,plasma alanine aminotransferase (ALT),"GSD IV mice; 40 mg/kg, p<0.01 vs untreated",650±32 U/L
same,liver/body weight ratio,"GSD IV mice; 40 mg/kg, p<0.05 vs untreated",5.0±0.2%
same,plasma aspartate aminotransferase (AST),"GSD IV mice; 40 mg/kg, p=0.074 vs untreated",849±50 U/L
same,"GAA activity in skeletal muscles, increase",GSD IV mice; 100 mg/kg,1.6 fold
same,"glycogen content in liver, change",GSD IV mice; 100 mg/kg weekly i.v. for 4 weeks,−25%
same,GAA activity in tissues,"GSD IV mice; 20, 40, 100 mg/kg, dose dependent",significant increase
same,"GAA activity in quadriceps, increase",GSD IV mice; at either dosage (20 or 40 mg/kg),negligible
same,"GAA activity in gastrocnemius, increase",GSD IV mice; either treated group (20 or 40 mg/kg),less than 1 fold
same,"anti-GAA antibodies generated, compared with that reported in GAA-KO mice",GSD IV mice; [8],significantly less
same,liver glycogen decrease,GSD III mice; [6],24-25%
same,glycogen content in heart,GSD III mice; 40 mg and 100 mg treatments,significantly reduced
same,glycogen content in liver,GSD III mice; 40 mg and 100 mg treatments,significantly reduced
same,ratio of liver/body weight,GSD III mice; 40 mg and 100 mg treatments,reduced
same,glycogen content in any tissues,GSD III mice; 20-mg treatment,did not affect
same,glycogen content in skeletal muscles,GSD III mice; 40-mg and 100-mg treatment groups,no significant change
same,GAA enzyme uptake (GAA activity rank order of tissues),GSD III mice; weekly i.v. for 4 weeks,liver>heart>diaphragm>leg muscles
same,plasma alanine aminotransferase (ALT),GSD III mice; weekly rhGAA for 4 weeks,reduction
same,plasma alkaline phosphatase (ALP),GSD III mice; weekly rhGAA for 4 weeks,reduction
same,plasma aspartate aminotransferase (AST),GSD III mice; weekly rhGAA for 4 weeks,reduction
same,plasma creatine kinase (CK),GSD III mice; weekly rhGAA for 4 weeks,reduction
same,"anti-GAA antibodies generated, compared with that reported in GAA-KO mice",GSD III mice; [8],significantly less
same,"visual motor, fine motor, and gross motor skills (M-FUN)",[3]; after five months of ERT,improvement
same,"overall clinical response (neurological, occupational and physical therapy reports)",[3]; listed as ERT,a clinical benefit was noted; also recorded: significant positive response
same,"overall clinical response (neurological, occupational and physical therapy reports)",[3]; listed as alglucosidase alfa,significant improvement; also recorded: significant musculoskeletal improvements
same,fatigue on reassessment,"[3]; five months of ERT, listed as ERT",less fatigue
same,Movement ABC percentile increase,[3]; [9],12
same,Movement ABC score increase,[3]; [9],5 points
same,Movement ABC Total Test Score,"[3]; re-assessment, 5 months after reinitiation of ERT",73
same,Movement ABC percentile,"[3]; re-assessment, 5 months after reinitiation of ERT, listed as ERT",37 percentile and 37th percentile
same,M-FUN Fine Motor Progress Score,[3]; [10],394
same,M-FUN Fine Motor Scaled Score,[3]; [10],5 (considered mild/
same,M-FUN Fine Motor assessment notes,[3]; [10],Patient's scaled scores show a fine motor improvement
same,M-FUN Gross Motor Progress Score,[3]; [10],407
same,M-FUN Gross Motor Scaled Score,[3]; [10],3 (considered very
same,M-FUN Gross Motor reassessment notes,[3]; [10],gaining new motor skills and is improving in their current
same,M-FUN Visual Motor Progress Score,[3]; [10],496
same,M-FUN Visual Motor Scaled Score,[3]; [10],9 (considered “average” or
same,M-FUN Visual Motor assessment notes,[3]; [10],Patient's scaled scores show a visual motor improvement
same,seizures,[3]; since reinitiation of ERT,better controlled
same,gross motor abilities assessed by physical therapist,"[3]; three months after first initiation of ERT, 20 mg/kg every 2 weeks",began improving
